Here are results for seven compounds from patent US20220105188A1, “TARGET PROTEIN EED DEGRADATION-INDUCING DEGRADUCER, PREPARATION METHOD THEREOF, AND PHARMACEUTICAL COMPOSITION FOR PREVENTING OR TREATING DISEASES RELATED TO EED, EZH2, OR PRC2, COMPRISING SAME AS ACTIVE INGREDIENT” (KOREA RESEARCH INSTITUTE OF CHEMICAL TECHNOLOGY, priority 2019, published 2022).

SMILES strings stand for the structures.

T1 sequence (O75530 whole entry): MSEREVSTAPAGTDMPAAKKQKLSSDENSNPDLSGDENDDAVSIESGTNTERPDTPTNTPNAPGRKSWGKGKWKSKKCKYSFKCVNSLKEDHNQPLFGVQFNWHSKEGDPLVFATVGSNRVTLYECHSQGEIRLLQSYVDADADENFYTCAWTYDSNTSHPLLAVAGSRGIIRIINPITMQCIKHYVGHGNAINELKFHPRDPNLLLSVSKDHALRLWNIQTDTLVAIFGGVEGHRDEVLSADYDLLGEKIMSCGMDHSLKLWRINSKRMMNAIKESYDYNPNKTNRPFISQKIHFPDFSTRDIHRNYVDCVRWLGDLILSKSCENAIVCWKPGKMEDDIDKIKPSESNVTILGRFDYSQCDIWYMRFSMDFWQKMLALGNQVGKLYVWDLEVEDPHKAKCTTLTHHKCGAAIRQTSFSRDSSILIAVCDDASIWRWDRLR

The assay addresses T1, EED (Homo sapiens, UniProt O75530).
T1 construct: 2×10^5 Hela cells were injected into a 12-well plate; endogenous in cells; host or cells: HeLa
Briefly: EED Proteolytic Activity Evaluation 2 (western blot, Hela cells). It is filed as cell-based. Particulars: 1 nM, 10 nM, 100 nM and 1000 nM, 20 hours of treatment. As for the experimental part: [Experiment 2] EED Proteolytic Activity Evaluation 2
In order to evaluate the EED proteolytic activity of the compound according to the present invention, an experiment was conducted as follows.
Specifically, 2×10^5 Hela cells were injected into a 12-well plate, and after 8 hours of stabilization, each well was treated with the example compounds to have final concentrations of 1 nM, 10 nM, 100 nM, and 1000 nM. One well was treated with the volume of DMSO contained in the sample corresponding to the highest concentration in the experimental group. After 20 hours of treatment, the cells were collected and lysed using 80 μl of SDS Lysis buffer (50 mM Tris pH8.0, 1% SDS, 1 mM EDTA, 0.5 mM PMSF, and protease inhibitor cocktail) and then sonication (30 sec on/59 sec off), 5 cycles) to prepare a cell lysate, followed by protein quantification through BCA, followed by Western blot, and the results are shown in Table 3. (Maximum EED degradation rate: A: >50%, B: 25-50%, C: <25%)
(In general: Immunoblotting shows a protein as a band on a membrane.)
Consider `Cc1cccc(F)c1CN1C[C@H](c2ccc(N3CCN(C(=O)CCC4CCN(C(=O)COc5cccc6c5C(=O)N(C5CCC(=O)NC5=O)C6=O)CC4)CC3)cc2)[C@@H](N(C)C)C1` (stereo partly drawn) [Example 148, 4-(2-(4-(3-(4-(4-((3S,4R)-4-(dimethylamino)-1-(2-fluoro-6-methylbenzyl)pyrrolidin-3-yl)phenyl)piperazin-1-yl)-3-oxopropyl)piperidin-1-yl)-2-oxoethoxy)-2-(2,6-dioxopiperidin-3-yl)isoindolin-1,3-dione], for which the “EED degradation rate (Maximum EED degradation rate)” value (“EED degradation rate” below) is on record as “A (A: >50%)”.

Take `Cc1cccc(F)c1CN1C[C@H](c2ccc(N3CCN(C(=O)CCC4CCN(C(=O)CNc5cccc6c5C(=O)N(C5CCC(=O)NC5=O)C6=O)CC4)CC3)cc2)[C@@H](N(C)C)C1` (stereo partly drawn) [Example 149, 4-((2-(4-(3-(4-(4-((3S,4R)-4-(dimethylamino)-1-(2-fluoro-6-methylbenzyl)pyrrolidin-3-yl)phenyl)piperazin-1-yl)-3-oxopropyl)piperidin-1-yl)-2-oxoethyl)amino)-2-(2,6-dioxopiperidin-3-yl)isoindolin-1,3-dione]: the “EED degradation rate” value was “B (B: 25-50%)”.

Turning to `Cc1cccc(F)c1CN1C[C@H](c2ccc(N3CCN(CCC4CCN(C(=O)COc5ccc6c(c5)C(=O)N(C5CCC(=O)NC5=O)C6=O)CC4)CC3)cc2)[C@@H](N(C)C)C1` (stereo partly drawn) [Example 150, 5-(2-(4-(2-(4-(4-((3S,4R)-4-(dimethylamino)-1-(2-fluoro-6-methylbenzyl)pyrrolidin-3-yl)phenyl)piperazin-1-yl)ethyl)piperidin-1-yl)-2-oxoethoxy)-2-(2,6-dioxopiperidin-3-yl)isoindolin-1,3-dione], the “EED degradation rate” value was “A (A: >50%)”.

`Cc1cccc(F)c1CN1C[C@H](c2ccc(N3CCN(CCC4CCN(C(=O)COc5cccc6c5C(=O)N(C5CCC(=O)NC5=O)C6=O)CC4)CC3)cc2)[C@@H](N(C)C)C1` (stereo partly drawn) [Example 151, 4-(2-(4-(2-(4-(4-((3S,4R)-4-(dimethylamino)-1-(2-fluoro-6-methylbenzyl)pyrrolidin-3-yl)phenyl)piperazin-1-yl)ethyl)piperidin-1-yl)-2-oxoethoxy)-2-(2,6-dioxopiperidin-3-yl)isoindolin-1,3-dione]: the “EED degradation rate” value was “A (A: >50%)”.

In the case of `Cc1cccc(F)c1CN1C[C@H](c2ccc(N3CCN(CCC4CCN(C(=O)CNc5cccc6c5C(=O)N(C5CCC(=O)NC5=O)C6=O)CC4)CC3)cc2)[C@@H](N(C)C)C1` (stereo partly drawn) [Example 152, 4-((2-(4-(2-(4-(4-((3S,4R)-4-(dimethylamino)-1-(2-fluoro-6-methylbenzyl)pyrrolidin-3-yl)phenyl)piperazin-1-yl)ethyl)piperidin-1-yl)-2-oxoethyl)amino)-2-(2,6-dioxopiperidin-3-yl)isoindolin-1,3-dione], the “EED degradation rate” value is recorded as “A (A: >50%)”.

Regarding `Cc1cccc(F)c1CN1C[C@H](c2ccc(N3CCN(CCC4CCN(c5cccc6c5C(=O)N(C5CCC(=O)NC5=O)C6=O)CC4)CC3)cc2)[C@@H](N(C)C)C1` (stereo partly drawn) [Example 153, 4-(4-(2-(4-(4-((3S,4R)-4-(dimethylamino)-1-(2-fluoro-6-methylbenzyl)pyrrolidin-3-yl)phenyl)piperazin-1-yl)ethyl)piperidin-1-yl)-2-(2,6-dioxopiperidin-3-yl)isoindolin-1,3-dione], the “EED degradation rate” value is given as “A (A: >50%)”.

As for `Cc1cccc(F)c1CN1C[C@H](c2ccc(N3CCN(CCC4CCN(c5ccc6c(c5)C(=O)N(C5CCC(=O)NC5=O)C6=O)CC4)CC3)cc2)[C@@H](N(C)C)C1` (stereo partly drawn) [Example 154, 5-(4-(2-(4-(4-((3S,4R)-4-(dimethylamino)-1-(2-fluoro-6-methylbenzyl)pyrrolidin-3-yl)phenyl)piperazin-1-yl)ethyl)piperidin-1-yl)-2-(2,6-dioxopiperidin-3-yl)isoindolin-1,3-dione], the “EED degradation rate” value is “A (A: >50%)”.
